{"source": "patent US20240254439A1", "about": "“METHOD FOR PREPARING TASTE BUD ORGANOIDS USING ANTERIOR TONGUE EPITHELIAL CELLS” (Korea University Research and Business Foundation, priority 2023, published 2024)", "key": {"[1]": {"tested_on": "taste bud organoids from anterior tongue epithelial tissue", "assay": "Differentiation into taste cells in anterior tongue taste bud organoids, immunofluorescence staining of taste cell markers", "format": "cell-based, mouse", "experimental": "(§1) The tongue was collected from a mouse, and dispase II enzyme (2 mg/mL) (Roche, cat #4942078001) diluted in physiological saline was injected into the space between the epithelium and subepithelial connective tissue to expand the tongue tissue ((2) in FIG. 1), and the expanded tongue tissue was cultured in dispase II enzyme dilution at 37° C. for 30 minutes. The epithelial layer is peeled off from the subepithelial connective tissue to separate the epithelial lamina therefrom, and it is cut into as small an area as possible using tools such as sterilized surgical scissors or a knife in trypsin/EDTA (Gibco, cat #25200072) solution. The finely cut tissues were cultured at 37° C. for 30 minutes. Thereafter, the finely cut tissues are subjected to pressure by continuous pipetting to extract cells from the tissue and form a single cell suspension. The cell pellets obtained by centrifuging this suspension are embedded in an extracellular matrix such as Matrigel at an appropriate ratio.\n(§2) All culture media are based on basic culture medium (DMEM/F12+1×GlutaMax+1×HEPES+1×N2 supplement+1×B27 supplement+1×penicillin/streptomycin).\n(§3) The single cells embedded in the Matrigel were cultured in differentiation medium 1 (FIRNY+SAG) for 4 days, then cultured for 10 days, while replacing the culture medium with differentiation medium 2 (FIRN+SAG+CHIR_SU5402) and changing the medium culture every 2-3 days.\nIn culturing taste bud organoids from anterior tongue epithelial tissue, it was confirmed by immunofluorescence staining that when SAG-containing basic culture medium was treated with CHIR99021 (CHIR), which stimulates the Wnt and Notch signaling pathways, the differentiation efficiency into type 1, type 2 and type 3 taste cells all increased (FIG. 4).\nIn order to confirm the optimization of the expression efficiency of markers for cells that make up taste buds in organoids and the differentiation efficiency into cells that make up taste buds by components other than CHIR, CHIR was added after the first 3 days of culture, and organoids were cultured in culture medium in which FGF was removed or SU5402 was additionally added. As a result, it was confirmed by immunofluorescence staining that when FGF was removed or SU5402 was additionally input after 3 days of culture, the differentiation efficiency into type 2 and type 3 taste cells increased (FIG. 6)."}, "[2]": {"tested_on": "taste bud organoids from anterior tongue epithelial tissue", "assay": "Culture efficiency (growth efficiency, size) of taste bud organoids from anterior tongue epithelial tissue", "format": "cell-based, mouse", "conditions": "added alone or in combination to basic culture medium supplemented with R-spondin1 and noggin; SAG added under all these conditions (FIG. 2)", "experimental": "as §1, §2, §3"}}}
{"molecule": "Cc1cnc(-c2cnc(NCCNc3ccc(C#N)cn3)nc2-c2ccc(Cl)cc2Cl)[nH]1", "note": "[CHIR99021]", "values": [{"measurement": "differentiation efficiency into type 1, type 2 and type 3 taste cells", "setting": "[1]; SAG-containing basic culture medium treated with CHIR99021, immunofluorescence staining (FIG. 4)", "result": "all increased"}, {"measurement": "differentiation efficiency into type 1, type 2 and type 3 taste cells by CHIR-treated time", "setting": "[1]; treated with CHIR on days 3, 5 or 7, immunofluorescence staining (FIG. 5)", "result": "the earlier treatment with CHIR, the higher the differentiation efficiency"}]}
{"molecule": "CNC1CCC(N(Cc2cccc(-c3ccncc3)c2)C(=O)c2sc3ccccc3c2Cl)CC1", "note": "(stereo not drawn) [SAG]", "values": [{"measurement": "differentiation into type 1, type 2 and type 3 taste cells", "setting": "[1]; SAG added to basic culture medium with R-spondin1 and noggin, with or without EGF, FGF2, IGF1 (FIG. 3)", "result": "differentiation into type 1, type 2 and type 3 taste cells was confirmed"}, {"measurement": "growth efficiency or size of the organoid itself", "setting": "[2]", "result": "no change"}]}
{"molecule": "Cc1c[nH]c(/C=C2\\C(=O)Nc3ccccc32)c1CCC(=O)O", "note": "[SU5402]", "values": [{"measurement": "differentiation efficiency into type 2 and type 3 taste cells", "setting": "[1]; CHIR added after the first 3 days of culture, SU5402 additionally input after 3 days, immunofluorescence staining (FIG. 6)", "result": "increased"}]}
{"molecule": "EGF: growth factor added to the basic culture medium (NSDSECPLSHDGYCLHDGVCMYIEALDKYACNCVVGYIGERCQYRDLKWWELR; UniProt P01133 971-1023, looked up)", "values": [{"measurement": "growth efficiency or size of the organoid itself", "setting": "[2]", "result": "no change"}]}
{"molecule": "FGF2: fibroblast growth factor 2, protein that regulates cell growth, proliferation and differentiation", "values": [{"measurement": "differentiation efficiency into taste cells", "setting": "[1]; growth factor added to SAG-containing medium with R-spondin1 and noggin, immunofluorescence staining (FIG. 3)", "result": "differentiation efficiency increased"}, {"measurement": "growth efficiency or size of the organoid itself", "setting": "[2]", "result": "no change"}]}
{"molecule": "IGF1: insulin-like growth factor 1, protein that regulates cell growth, proliferation and differentiation", "values": [{"measurement": "growth efficiency or size of the organoid itself", "setting": "[2]", "result": "no change"}]}
